Tests used:
[1] = biological target: Bromodomain-containing protein 4 (Homo sapiens, UniProt O60885); assay: (§1) Time-Resolved Fluorescence Resonance Energy Transfer (TR-FRET) Assay: The assay was carried out in binding mixtures of the bromodomain protein, 0-10 μM compounds and tetra-acetylated histone peptide (SGRGAC.KGGAC.KGLGAC.KGGAAC.[…]-biotin) in buffer containing 25 mM HEPES pH 7.5, 100 mM NaCl, 0.1% BSA, 0.05% CHAPS, and detection reagents. […] Upon further incubation for 1 hr, the TR-FRET signals were recorded on a BMG PHERAstar FS instrument.
[2] = biological target: Bromodomain-containing protein 3 (Homo sapiens, UniProt Q15059); assay: as §1
Chain of Bromodomain-containing protein 3 (Q15059 whole entry): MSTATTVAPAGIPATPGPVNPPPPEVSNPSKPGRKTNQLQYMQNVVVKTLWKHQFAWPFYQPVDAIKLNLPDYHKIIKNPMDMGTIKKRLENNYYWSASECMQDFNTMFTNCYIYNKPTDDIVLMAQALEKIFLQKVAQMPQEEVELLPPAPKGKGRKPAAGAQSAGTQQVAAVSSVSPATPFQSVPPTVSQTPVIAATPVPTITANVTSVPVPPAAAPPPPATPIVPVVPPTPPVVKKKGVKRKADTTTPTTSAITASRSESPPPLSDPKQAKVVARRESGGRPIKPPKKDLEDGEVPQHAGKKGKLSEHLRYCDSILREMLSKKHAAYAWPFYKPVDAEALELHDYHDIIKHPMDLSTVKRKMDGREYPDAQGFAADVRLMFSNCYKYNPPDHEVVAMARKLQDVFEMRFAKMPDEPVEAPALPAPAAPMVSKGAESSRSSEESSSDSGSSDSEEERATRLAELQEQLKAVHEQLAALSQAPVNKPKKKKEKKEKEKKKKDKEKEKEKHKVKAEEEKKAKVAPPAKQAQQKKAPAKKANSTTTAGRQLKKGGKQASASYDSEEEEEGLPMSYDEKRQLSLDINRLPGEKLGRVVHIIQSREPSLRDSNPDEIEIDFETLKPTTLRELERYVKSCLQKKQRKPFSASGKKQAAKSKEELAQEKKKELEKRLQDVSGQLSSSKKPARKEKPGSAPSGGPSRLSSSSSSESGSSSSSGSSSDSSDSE

[3] = biological target: Bromodomain-containing protein 2 (Homo sapiens, UniProt P25440); assay: as §1
Chain of Bromodomain-containing protein 2 (P25440 whole entry): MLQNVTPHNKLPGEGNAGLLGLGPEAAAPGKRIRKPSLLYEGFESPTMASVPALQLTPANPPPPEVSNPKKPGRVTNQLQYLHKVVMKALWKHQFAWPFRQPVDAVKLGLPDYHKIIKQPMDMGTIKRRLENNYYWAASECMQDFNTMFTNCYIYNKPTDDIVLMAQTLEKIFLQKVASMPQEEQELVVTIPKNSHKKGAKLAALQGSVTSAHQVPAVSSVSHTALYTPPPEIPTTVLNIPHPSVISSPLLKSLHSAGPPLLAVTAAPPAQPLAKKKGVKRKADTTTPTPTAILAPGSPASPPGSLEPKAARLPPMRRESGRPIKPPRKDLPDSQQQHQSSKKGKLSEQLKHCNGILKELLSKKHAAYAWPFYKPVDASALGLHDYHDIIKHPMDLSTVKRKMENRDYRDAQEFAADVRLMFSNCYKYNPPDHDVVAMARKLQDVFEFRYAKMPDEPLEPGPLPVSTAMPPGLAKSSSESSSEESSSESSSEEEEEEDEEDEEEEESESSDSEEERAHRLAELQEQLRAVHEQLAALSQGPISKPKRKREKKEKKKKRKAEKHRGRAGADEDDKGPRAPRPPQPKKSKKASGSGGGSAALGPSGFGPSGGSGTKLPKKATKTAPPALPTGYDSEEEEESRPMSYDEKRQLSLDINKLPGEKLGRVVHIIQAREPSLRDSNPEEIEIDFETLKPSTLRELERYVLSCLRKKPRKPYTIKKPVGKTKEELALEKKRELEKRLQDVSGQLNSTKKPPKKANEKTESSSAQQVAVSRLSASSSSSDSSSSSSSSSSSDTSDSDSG

[4] = biological target: Bromodomain testis-specific protein (Homo sapiens, UniProt Q58F21); assay: as §1

Row | SMILES | IC50 [1] | IC50 [2] | IC50 [3] | IC50 [4]
1 | Cc1noc(C)c1-c1ccc2c(c1)C(C1CCCCC1)(N1CCN(C)CC1)C(=O)N2 (stereo not given) | 110 nM |  |  | 
2 | Cc1noc(C)c1-c1ccc2c(c1)C(OCCO)(C1CCCCC1)C(=O)N2 (stereo not given) | 82 nM |  |  | 
3 | C=CCCC1(O)C(=O)Nc2ccc(-c3c(C)noc3C)cc21 (stereo not given) | 430 nM |  |  | 
4 | Cc1noc(C)c1-c1ccc2c(c1)C(O)(C1CCCCCC1)C(=O)N2 (stereo not given) | 98 nM |  |  | 
5 | C=CCCCC1(O)C(=O)Nc2ccc(-c3c(C)noc3C)cc21 (stereo not given) | 540 nM |  |  | 
6 | Cc1noc(C)c1-c1ccc2c(c1)C(C1CCCC1)(N1CCN(C)CC1)C(=O)N2 (stereo not given) | 180 nM |  |  | 
7 | Cc1noc(C)c1-c1ccc2c(c1)C(N)(c1ccccc1)C(=O)N2 (single isomer, unassigned) | 150 nM | 35 nM | 55 nM | 95 nM

From ChEMBL document CHEMBL3886816, “Substituted 5-(3,5-dimethylisoxazol-4-yl)indoline-2-ones” (2016)
